Source: patent publication US20110217300A1, “Quinazolinone Compounds and Methods of Use Thereof” (priority 2007, published 2011)

Key:
HsEg5 = target: T1, HsEg5 (Homo sapiens, UniProt P52732); assay: Luminescent detection of HsEg5 ATPase activity (Kinase-Glo Plus); type: biochemical
T1 sequence (P52732 18-359 limits assumed): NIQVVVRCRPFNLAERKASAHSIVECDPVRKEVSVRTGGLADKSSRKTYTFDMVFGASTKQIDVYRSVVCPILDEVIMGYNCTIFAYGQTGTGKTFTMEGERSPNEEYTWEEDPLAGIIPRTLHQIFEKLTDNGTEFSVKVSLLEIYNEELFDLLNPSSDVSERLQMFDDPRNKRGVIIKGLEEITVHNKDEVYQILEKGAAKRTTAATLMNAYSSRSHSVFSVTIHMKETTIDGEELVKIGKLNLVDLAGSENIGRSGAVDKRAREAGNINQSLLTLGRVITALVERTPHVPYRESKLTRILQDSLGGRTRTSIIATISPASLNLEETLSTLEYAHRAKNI
Procedure: Purified HsEg5 motor fragment was activated by mixture with preformed MT polymer (Cytoskeleton, Denver, Colo.) at room temperature for 20 minutes. MT activated ATPase activity was measured using Kinase-Glo® Plus Luminescent Kinase Assay (Promega, Madison, Wis.).
For inhibitor screening, 5 μL of compounds were incubated with 20 μL of MT-activated HsEg5 such that the final concentrations for compound range from 100 μM to 5 nM (1 to 3 serial dilutions, final concentration) and final concentration for HsEg5 is 25 nM. The mixture was incubated at room temperature for 20 minutes with mild shaking. The screening assay contained 0.3% DMSO in all reaction wells. We used wells containing only DMSO as negative controls and wells without ATP as background. Addition of 15 μL of 13 μM ATP (final concentration of 5 μM) initiated the ATP hydrolysis reaction. The 40 μL-reaction was allowed to proceed at room temperature for 45 minutes before addition of 40 μL of Kinase®-Glo Plus. After 15-minute development at room temperature, the luminescent was measured.
Eg5 IC50 data was generated using both fluorescence and Luminescence detection assays as described above. Compounds I-69 were screened using automated fluorescence assay while compounds 70-83 were screened using Luminescence detection assay. (See reference “Zhang B, Senator D, Wilson C J, Ng S C. (2005) “Development of a high-throughput robotic fluorescence-based assay for HsEg5 inhibitor screening” Anal Biochem. 345:326-335″).

NCI-H460 = assay: MTS cell viability assay; type: cell-based, human; settings: Homo sapiens, NCI-H460, 72 h, read-out: MTS NCI H460 GI50
Summary of the method: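 72 h compound treatment, 0.33% DMSO; […] PMS 7.67 mg/L, 4 h; 1.4% SDS; […]. Cells 100-5000/well, 37° C., 5% CO2. Output GI50, ≥2 replicates.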

A549 = assay: MTS cell viability assay; type: cell-based; settings: Homo sapiens, A549, 72 h, read-out: MTS NCI A549 GI50
Summary of the method: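 A549 and a second human cancer line seeded in DMEM/10% FBS, allowed 16–24 h to attach, then exposed 72 h at 37 °C, 5% CO2 to serially diluted compound (final DMSO 0.33%). Viability measured by MTS.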

IC50 (HsEg5)	Compound	GI50 (NCI-H460)	GI50 (A549)
90 nM	C#CC[C@H](c1nc2cc(Cl)ccc2c(=O)n1Nc1ccccc1)N(CCCN)C(=O)c1ccc(C)cc1 [Compound 75, N-(3-Amino-propyl)-N—[(R)-1-(7-chloro-4-oxo-3-phenylamino-3,4-dihydro-quinazolin-2-yl)-but-3-ynyl]-4-methyl-benzamide]	1500 nM	2800 nM
130 nM	C#CC[C@H](c1nc2cc(Cl)ccc2c(=O)n1Nc1ccccc1)N(CCCN)C(=O)c1ccc(C)c(F)c1F [Compound 76, N-(3-Amino-propyl)-N—[(R)-1-(7-chloro-4-oxo-3-phenylamino-3,4-dihydro-quinazolin-2-yl)-but-3-ynyl]-2,3-difluoro-4-methyl-benzamide]	860 nM	1300 nM
70 nM	C#CC[C@H](c1nc2cc(Cl)ccc2c(=O)n1Nc1ccccc1)N(CCCN)C(=O)c1c(OC)ccc(F)c1F [Compound 77]	530 nM	860 nM
40 nM	C#CC[C@H](c1nc2cc(Cl)ccc2c(=O)n1Nc1ccccc1)N(CCCN)C(=O)c1ccc(OC)c(F)c1F [Compound 78]	700 nM	1450 nM
550 nM	C#CC[C@H](c1nc2cc(Cl)ccc2c(=O)n1Nc1ccccc1)N(CCCN)C(=O)c1c(F)cc(Cl)cc1F [Compound 79]	430 nM	1300 nM
90 nM	C#CC[C@H](c1nc2cc(Cl)ccc2c(=O)n1Nc1ccccc1)N(CCCN)C(=O)c1cc(F)cc(F)c1 [Compound 80, (R)—N-(3-Aminopropyl)-N-(1-(7-chloro-4-oxo-3-(phenylamino)-3,4-dihydroquinazolin-2-yl)but-3-ynyl)-3,5-difluorobenzamide]	100 nM	580 nM
160 nM	C#CC[C@H](c1nc2cc(Cl)ccc2c(=O)n1Nc1ccccc1)N(CCCN)C(=O)c1cc(F)cc(F)c1F [Compound 81, (R)—N-(3-Aminopropyl)-N-(1-(7-chloro-4-oxo-3-(phenylamino)-3,4-dihydroquinazolin-2-yl)but-3-ynyl)-2,3,5-trifluorobenzamide]	340 nM	660 nM
6600 nM	C#CC[C@H](c1nc2cccnc2c(=O)n1Nc1ccccc1)N(CCCN)C(=O)c1cccc(Cl)c1F [Compound 83, (R)—N-(3-Aminopropyl)-3-chloro-2-fluoro-N-(1-(4-oxo-3-(phenylamino)-3,4-dihydropyrido[3,2-d]pyrimidin-2-yl)but-3-ynyl)benzamide]	27000 nM	> 100000 nM
